Results on seven compounds are retold here after ChEMBL document CHEMBL3244359, “Aromatic hydroxylation of beta-adrenergic antagonists. 4- and 5-hydroxylation of 1-(isopropylamino)-3-[2-(allyloxy)phenoxy]-2-propanol (oxprenolol)” (J Med Chem, 1978).

The structures appear in SMILES notation.

Series [1] can be described thus: Drug excretion in Sprague-Dawley rat urine treated with oxprenolol at 20 mg/kg, ip after 24 hrs by GC-CIMS analysis. In kind it is ADME, organism-based. Also on record: dose 20 mg/kg, route intraperitoneal. As to conditions: in vivo.
Series [2] can be described thus: Retention time of the compound by gas chromatography. It is filed as physicochemical.
Series [3] can be described thus: Drug excretion in Sprague-Dawley rat urine treated with oxprenolol at 20 mg/kg, ip after 24 hrs by GC-CIMS analysis in presence of beta-glucuronidase and CH2N2. It is filed as ADME, organism-based. More on the design: dose 20 mg/kg, route intraperitoneal. Particulars: in vivo.

For `C=CCOc1cc(O)ccc1OCC(O)CNC(C)C` (centres undefined), in series [1], the Drug excretion entry is reported as “metabolite_detected”. As to `C=CCOc1ccc(O)cc1OCC(O)CNC(C)C` (centres undefined), in series [1], the Drug excretion entry was “metabolite_detected”. Regarding `C=CCOc1ccccc1OCC(O)CNC(C)C.O=C(O)C(F)(F)F` (centres undefined), the Retention_time in series [2] was determined as 5.7 min. With `C=CCOc1cc(OC)ccc1OCC(O)CNC(C)C.O=C(O)C(F)(F)F` (centres undefined), the Drug excretion entry in series [3] is listed as “metabolite_detected”. This compound returned a Retention_time in series [2] of 13.1 min. For the compound `C=CCOc1ccc(OC)cc1OCC(O)CNC(C)C.O=C(O)C(F)(F)F` (centres undefined), the Drug excretion result in series [3] is recorded as “metabolite_detected”. In series [2], the Retention_time is 11.8 min.

The compound `C=CCOc1c(OC)cccc1OCC(O)CNC(C)C.O=C(O)C(F)(F)F` (centres undefined) returned a Retention_time in series [2] of 9.6 min. For `C=CCOc1cccc(OC)c1OCC(O)CNC(C)C.O=C(O)C(F)(F)F` (centres undefined), the Retention_time in series [2] stood at 10.5 min.
